Reference: patent US20140105957A1, “BIS-(ALPHA-AMINO-DIOL-DIESTER) CONTAINING POLYESTERAMIDE FOR OPHTAMOLOGY” (DSM IP ASSETS B.V., priority 2011, published 2014)

Assay: Stability of Latanoprost in PEA III formulations and compatibility with film casting, evaluated by 1H NMR
Format: physicochemical
Procedure: For film casting, solutions were prepared in a suitable solvent resulting in solutions with viscosities low enough for solvent casting. Exact amounts of PEA-III ac Bz and API (Active Pharmaceutical Ingredient) were weighed and dissolved with a suitable solvent. The API payload is determined over the polymer weight. API payload of 10% was used. The API/polymer/solvent formulations were poured into petri dishes (4 cm diameter) and covered to reduce evaporation rates of the solvent and prevent formation of air bubbles. The solvent was evaporated for 2 days at TT in a fumehood followed by 2 days @ 750 mBar, 1 day @ 500 mBar and 2 days at full vacuum. From the resulting films, discs were cut with diameter of 10 mm and approximate thicknesses of 500 μm.
A sample was prepared by dissolving ˜10 mg of material in 1 ml of deuterated THF in a 10 ml glass vial. The sample was allowed sufficient time for complete dissolution. ^1H NMR spectra was recorded on a 300 MHz Bruker Avance 300, ARX 400 NMR instrument.
Stability of Latanoprost in formulations and compatibility with film casting procedure was evaluated by ^1H NMR.

- Stability of Latanoprost (degradation of API) by 1H NMR (PEA III formulations with Latanoprost stored @ 4° C. for 3 months): did not indicate any degradation
- Stability of Latanoprost (degradation of API) by 1H NMR (initial PEA III formulations with Latanoprost, after film casting): did not indicate any degradation
Compound: CC(C)OC(=O)CCC/C=C\C[C@@H]1[C@@H](CC[C@@H](O)CCc2ccccc2)[C@H](O)C[C@@H]1O [Latanoprost]
